Experimental data: article PMC9503459, “Antifungal Activity, Structural Stability, and Immunomodulatory Effects on Human Immune Cells of Defensin from the Lentil Lens culinaris” (Membranes, 2022)
No end group written: not given here.

Tests used:
[1] = tested on: proteolytic enzymes of Candida albicans; assay: Influence of defensins on degradation of proteins by C. albicans lysate; format: biochemical; conditions: SDS-PAGE
Experimental: For study of Lc-def sensitivity to the clinical isolate of C. albicans, lysates of yeast cells in different concentration and pH were used basically as previously described for rhesus macaque θ-defensin 1 [22]. Cells were inoculated onto modified YPD medium and grown at 37 ℃ for 48 h before reaching the stationary phase of growth. Cells were harvested by centrifugation, washed two times in sterile phosphate buffered saline (PBS), pH 7.2, or sterile 40 mM sodium acetate, pH 4.0, and resuspended in the corresponding buffer to final concentrations of 1 × 10^9 cells/mL or 1 × 10^3 cells/mL. Two freeze-thaw cycles in liquid nitrogen were used for cell disruption, and supernatants were collected following centrifugation. Supernatants (12.5 μL) were mixed with water solutions (37.5 μL) of Lc-def, α-casein, Psd1, or LL-37 in concentration of 0.67 mg/mL and incubated at 37 ℃ for 72 or 24 h in the case of high or low cell concentration, respectively. To study the possible influence of Lc-def and Psd1 on the degradation process, supernatants (12.5 μL) were mixed with both α-casein or LL-37 in concentration of 1 mg/mL (25 μL) and Lc-def or Psd1 in concentration of 2 mg/mL (12.5 μL). As negative controls, α-casein and peptides were mixed with buffers as well as supernatants were mixed with water without the proteins. The samples were mixed with sample buffer without β-mercaptoethanol (BME), heated at 100 ℃ for 2 min, and analyzed by sodium dodecyl sulfate polyacrylamide gel electrophoresis (SDS-PAGE). Some independent experiments were performed in each case.

CD8+ T cytotoxic cells = assay: Cytokine response by multiplex xMAP, CD8+ T cytotoxic cells; format: cell-based, human; conditions: 2 µM, 24 h
Experimental: Colorectal adenocarcinoma Caco-2 cell line (ATCC HTB-37) was cultured in complete DMEM/F12 (1:1) medium containing 10% fetal bovine serum (FBS, Gibco) and 1X antibiotic-antimycotic solution (1XAAS, Invitrogen, Waltham, MA, USA). The acute monocytic leukemia THP-1 line (ATCC TIB-202) was cultured in complete RPMI-1640 medium, containing 10% FBS, 1XAAS, and […]. THP-1 cells were differentiated into pro-inflammatory macrophages (Mφ1) with phorbol 12-myristate 13-acetate (Sigma-Aldrich) for 24 h and subsequently polarized with lipopolysaccharide from E. coli (Sigma-Aldrich) and rhIFN-γ (Sigma-Aldrich) for another 48 h according to previously reported protocol. All cells were cultured in a humidified CO2 incubator (5% CO2, 37 °C). Primary peripheral blood mononuclear cells (PBMCs) collected from a healthy donor were purchased from American Type Culture Collection (ATCC PCS-800-011). CD4^+ T-helper and CD8^+ T cytotoxic cells were isolated from PBMCs by magnetic separation with mouse anti-human CD4-PE (clone 13B8.2, Beckman Coulter Diagnostics, Pasadena, CA, USA) and CD8-PE (clone REA734, Miltenyi Biotec, Bergisch Gladbach, Germany), Anti-PE MicroBeads (Miltenyi Biotec), and LS Separation Columns (Miltenyi Biotec). Isolated CD4^+ and CD8^+ cells were expanded separately with Dynabeads™ Human T-Expander CD3/CD28 (Gibco, Waltham, MA, USA) in RPMI-1640 supplemented with 10% FBS, 1XAAS and 100 U/mL rh-IL-2 (Gibco). Regulatory CD4^+ FoxP3^+ T cells (Tregs) were isolated from PBMCs by magnetic separation with CD4^+CD25^+ Regulatory T Cell Isolation Kit, human (Miltenyi Biotec). Primary CD14^+ blood monocytes were isolated from PBMCs by adherence according to standard technique. Monocyte-derived mature dendritic cells (moDCs) were obtained from CD14^+ blood monocytes according to the previously reported protocol. Briefly, blood monocytes were incubated in complete RPMI-1640 medium, containing 10% FBS, 1XAAS, 800 U/mL rhGM-CSF (Sci-Store, Russia, Moscow) and 500 U/mL rhIL-4 (Sci-Store) for 3 days. Fresh complete RPMI-1640 medium with rhGM-CSF and rhIL-4 was added to the culture on day 3. On day 5, fresh complete RPMI-1640 containing 100 U/mL rhTNF-α (Sigma) as well as 800 U/mL rhGM-CSF and 500 U/mL rhIL-4 was added and the culture was incubated for another 4 days until full maturation.
Caco-2 cells were seeded into the wells of a 48-well plate, coated with 0.1% bovine collagen (Sigma-Aldrich) for 24 h, 3 weeks before the experiment with complete DMEM/F12 (1:1) medium renewal every 2–3 days. Monocytes, moDCs, CD4^+ T-helper and CD8^+ T cytotoxic cells, Mφ1, and Regulatory CD4^+ FoxP3^+ T cells were seeded into the wells of 48-well plates in the complete RPMI-1640 medium supplemented with 10% Human AB serum (HABS, Capricorn Scientific, Ebsdorfergrund, Germany) and 1XAAS 24 h prior to the experiment; medium in Caco-2-containing wells was also replaced with the same medium. After 24 h, half of the medium in each well was replaced by fresh complete RPMI-1640 medium with 10% HABS, supplemented with 4 µM of Lc-def for the sample wells or fresh medium alone for the control wells. Cell cultures were kept in CO2-incubator (5% CO2, 37 °C) for another 24 h. Culture supernatants were collected 24 h later and stored at −70 °C degrees less than one month prior to the analytes assessment. […]

[2] = C. albicans lysate 10^3 cells/mL, pH 7.2, up to 24 h

For “Lc-def: defensin from lentil Lens culinaris seeds (UniProt:B3F051), recombinant, overexpressed in Escherichia coli (KTCENLSDSFKGPCIPDGNCNKHCKEKEHLLSGRCRDDFRCWCTRNC; disulfide (positions not given here); ends not checked; also: disulfide bonds present, pairing not given here; UniProt B3F051 28-74, looked up)”, the “influence on LL-37 degradation” value [1, 2] was “did not decrease LL-37 degradation”, the “influence on the rate of α-casein degradation” value [1, 2] was “decreased the rate of α-casein degradation” and the “influence on degradation of the major protein of C. albicans” value ([1]; C. albicans lysate 10^9 cells/mL) was “decrease in degradation”. The EGF (CD8+ T cytotoxic cells) was <1.95↓ pg/ml, the Eotaxin (CD8+ T cytotoxic cells) was <3.23↓ pg/ml and the FGF-2 (CD8+ T cytotoxic cells) was 0 pg/mL. The FLT-3L (CD8+ T cytotoxic cells) was <0.45↓ pg/ml, the Fractalkine (CD8+ T cytotoxic cells) was <23.19↓ pg/ml and the G-CSF (CD8+ T cytotoxic cells) was <2.57↓ pg/ml. For the same substance, the GM-CSF (CD8+ T cytotoxic cells) was <1.36↓ pg/ml, the GROa (CD8+ T cytotoxic cells) was <0.67↓ pg/ml and the IFNa2 (CD8+ T cytotoxic cells) was <4.43↓ pg/ml. For the same substance, the IFNg (CD8+ T cytotoxic cells) was <1.99↓ pg/ml, the IL-1RA (CD8+ T cytotoxic cells) was <0.83↓ pg/ml and the IL-1a (CD8+ T cytotoxic cells) was 9 pg/mL. The IL-1b (CD8+ T cytotoxic cells) was <18.72↓ pg/ml, the IL-2 (CD8+ T cytotoxic cells) was <0.31↓ pg/ml and the IL-3 (CD8+ T cytotoxic cells) was <0.48↓ pg/ml. The IL-4 (CD8+ T cytotoxic cells) was <0.31↓ pg/ml, the IL-5 (CD8+ T cytotoxic cells) was 9.01 pg/mL and the IL-6 (CD8+ T cytotoxic cells) was <0.30↓ pg/ml. For the same substance, the IL-7 (CD8+ T cytotoxic cells) was <0.33↓ pg/ml, the IL-8 (CD8+ T cytotoxic cells) was <0.49↓ pg/ml and the IL-9 (CD8+ T cytotoxic cells) was <1.05↓ pg/ml. The IL-10 (CD8+ T cytotoxic cells) was <0.68↓ pg/ml, the “IL-12 (p40)” value (CD8+ T cytotoxic cells) was <3.02↓ pg/ml and the “IL-12 (p70)” value (CD8+ T cytotoxic cells) was <1.48↓ pg/ml. For the same substance, the IL-13 (CD8+ T cytotoxic cells) was <5.00↓ pg/ml, the IL-15 (CD8+ T cytotoxic cells) was <1.45↓ pg/ml and the IL-17A (CD8+ T cytotoxic cells) was <1.55↓ pg/ml. For the same substance, the IL-17E/IL-25 (CD8+ T cytotoxic cells) was <20.59↓ pg/ml, the IL-17F (CD8+ T cytotoxic cells) was <16.96↓ pg/ml and the IL-18 (CD8+ T cytotoxic cells) was <0.35↓ pg/ml. The IL-22 (CD8+ T cytotoxic cells) was <8.31↓ pg/ml, the IL-27 (CD8+ T cytotoxic cells) was <8.55↓ pg/ml and the IP-10 (CD8+ T cytotoxic cells) was <1.56↓ pg/ml. The M-GSF (CD8+ T cytotoxic cells) was <23.75↓ pg/ml, the MCP-1 (CD8+ T cytotoxic cells) was <1.52↓ pg/ml and the MCP-3 (CD8+ T cytotoxic cells) was <3.95↓ pg/ml. For the same substance, the MDC (CD8+ T cytotoxic cells) was <0.35↓ pg/ml, the MIG (CD8+ T cytotoxic cells) was <3.43↓ pg/ml and the MIP-1a (CD8+ T cytotoxic cells) was <1.76↓ pg/ml. For the same substance, the MIP-1b (CD8+ T cytotoxic cells) was <1.92↓ pg/ml, the PDGF-AA (CD8+ T cytotoxic cells) was <7.38↓ pg/ml and the PDGF-AB/BB (CD8+ T cytotoxic cells) was <9.75↓ pg/ml. The RANTES (CD8+ T cytotoxic cells) was 366.74 pg/mL, the TGF-a (CD8+ T cytotoxic cells) was <0.66↓ pg/ml and the TNFa (CD8+ T cytotoxic cells) was <3.91↓ pg/ml. The TNFb (CD8+ T cytotoxic cells) was <0.73↓ pg/ml, the VEGFa (CD8+ T cytotoxic cells) was <1.27↓ pg/ml and the “effects on cytokine production” value (CD8+ T cytotoxic cells) was “No effects”. For the same substance, the sCD40L (CD8+ T cytotoxic cells) was <6.66↓ pg/ml.
